Test results taken from patent US20240301494A1, “IDENTIFICATION AND TREATMENT OF PATIENTS WITH EPILEPSY” (GW Research Limited, priority 2020, published 2024).

Assays:
Assay type in all cases: in vivo, human
[1] = system: patients with treatment-resistant epilepsy (TRE); assay: CBD tolerability: adverse events (MedDRA) in open-label Expanded Access Program
Protocol: (§1) All patients (or caregivers) were instructed to keep seizure diaries, which were verified during in-person visits. At each clinic visit, data on concomitant AEDs, CBD maintenance dose (mg/kg/day), seizure frequencies, and adverse events were collected.
Adverse effects were classified according to the Medical Dictionary for Regulatory Activities (MedDRA, V17.1), and those that differed by response status (diarrhoea, sedation, and abnormal liver function tests (LFTs)) were evaluated in the genetic analyses.

[2] = system: patients with treatment-resistant epilepsy (TRE); assay: Single-marker association of genetic variants (DMET plus array) with CBD response, logistic regression
Protocol: (§2) Baseline data collection included demographics, seizure frequencies/severity, concomitant AEDs, and laboratory data.
(§3) CLIA-certified genotyping on the Affymetrix Drug Metabolizing Enzymes and Transporters (DMET) plus array was performed through the Coriell Institute for Medical Research (Camden, NJ) in two batches, with nine samples re-genotyped due to low call rates. The DMET plus array interrogates 1,936 markers (1,931 variants and 5 copy number regions) across ˜230 drug-related genes. Affymetrix DMET Console software® (version 1.3) was used to generate genotype profiles. Of the 1,931 variants, 1,328 were removed due to location on the X-chromosome or a minor allele frequency <0.05.
Hardy-Weinberg equilibrium was evaluated, and variants p<0.0001 were further evaluated by race. Variants in linkage disequilibrium (LD) were removed (n=212; r2=0.5), leaving 396 variants in the analyses.
Relationships between variants and CBD response/tolerability were tested under dominant (AA vs Ab+bb) and recessive (AA+Ab vs bb) models using logistic regression in PLINK. Treatment group (adult vs paediatric), race, and sex were included as covariates in all analyses.
(§4) A permutation approach was used to account for multiple testing (number of permutations: 1,000), since other methods (e.g. Bonferroni correction) assume independence between markers and likely be overly conservative.

[3] = system: patients with treatment-resistant epilepsy (TRE); assay: Single-marker association of genetic variants (DMET plus array) with CBD-related adverse effects, logistic regression
Protocol: as §2
as §3, with “profiles.” for “profiles. Of the 1,931 variants, 1,328 were removed due to location on the X-chromosome or a minor allele frequency <0.05.”
Hardy-Weinberg equilibrium was evaluated, and variants p<0.0001 were further evaluated by race.
Treatment group (adult vs paediatric), race, and sex were included as covariates in all analyses.
as §4

[4] = system: patients with treatment-resistant epilepsy (TRE); assay: Multivariable model of CBD response in treatment-resistant epilepsy
Protocol: Receiver operator curves (ROC) were generated and the area under the curve (AUC) was evaluated to compare clinical, genetic, and combined clinical+genetic models. Epistasis was evaluated in PLINK to identify potential interactions among variants included in the final response model.

[5] = system: patients with treatment-resistant epilepsy (TRE); assay: CBD response (percent change in seizure frequency) in open-label Expanded Access Program; conditions: for Maintenance seizure frequency, Mean ± SD: per 28 days; for Percent change seizure frequency, Mean ± SD: vs baseline
Text: as §1

SMILES: C=C(C)[C@@H]1CCC(C)=C[C@H]1c1c(O)cc(CCCCC)cc1O [CBD, cannabidiol]
- Adverse event Abnormal liver function tests, % ([1]; Non-Responders (N = 49)): (4.1%)
- Adverse event Decreased appetite, % ([1]; Non-Responders (N = 49)): (6.1%)
- Adverse event Depressed mood, % ([1]; Non-Responders (N = 49)): (14.3%)
- Adverse event Diarrhoea, % ([1]; Non-Responders (N = 49)): (44.9%)
- Adverse event Nausea/vomiting, % ([1]; Non-Responders (N = 49)): (10.2%)
- Adverse event Sedation, % ([1]; Non-Responders (N = 49)): (44.9%)
- Weight Change: 10-20% Weight loss, % ([1]; Non-Responders (N = 49)): (24.5%)
- Weight Change: <10% Weight loss, % ([1]; Non-Responders (N = 49)): (53.1%)
- Weight Change: >20% Weight loss, % ([1]; Non-Responders (N = 49)): (6.1%)
- Weight Change: No Change or increase, % ([1]; Non-Responders (N = 49)): (16.3%)
- Adverse event Abnormal liver function tests, % ([1]; Overall (N = 112)): (10.7%)
- Adverse event Decreased appetite, % ([1]; Overall (N = 112)): (10.7%)
- Adverse event Depressed mood, % ([1]; Overall (N = 112)): (10.7%)
- Adverse event Diarrhoea, % ([1]; Overall (N = 112)): (58.9%)
- Adverse event Nausea/vomiting, % ([1]; Overall (N = 112)): (12.5%)
- Adverse event Sedation, % ([1]; Overall (N = 112)): (34.8%)
- Weight Change: 10-20% Weight loss, % ([1]; Overall (N = 112)): (20.5%)
- Weight Change: <10% Weight loss, % ([1]; Overall (N = 112)): (51.8%)
- Weight Change: >20% Weight loss, % ([1]; Overall (N = 112)): (8.0%)
- Weight Change: No Change or increase, % ([1]; Overall (N = 112)): (19.6%)
- Adverse event Abnormal liver function tests, % ([1]; Responders (N = 63)): (15.9%)
- Adverse event Decreased appetite, % ([1]; Responders (N = 63)): (14.3%)
- Adverse event Depressed mood, % ([1]; Responders (N = 63)): (7.9%)
- Adverse event Diarrhoea, % ([1]; Responders (N = 63)): (69.8%)
- Adverse event Nausea/vomiting, % ([1]; Responders (N = 63)): (14.3%)
- Adverse event Sedation, % ([1]; Responders (N = 63)): (27.0%)
- Weight Change: 10-20% Weight loss, % ([1]; Responders (N = 63)): (17.5%)
- Weight Change: <10% Weight loss, % ([1]; Responders (N = 63)): (50.8%)
- Weight Change: >20% Weight loss, % ([1]; Responders (N = 63)): (9.5%)
- Weight Change: No Change or increase, % ([1]; Responders (N = 63)): (22.2%)
- increased likelihood of response ([2]; AOX1 rs6729738, recessive): 6 fold
- increased odds of response ([2]; CHST11 rs903247): 4 fold
- decreased likelihood of response ([2]; GSTM5 rs2479390): 72%
- decreased likelihood of response ([2]; GSTP1 rs1695 (recessive)): 87%
- increased likelihood of response ([2]; SULT1A2 rs1059491 (recessive)): 17 fold
- increased odds of response ([2]; UGT2B4 rs1966151): 4 fold
- association of variant with CBD-associated sedation ([3]; ABCB1 rs1045642): decreased sedation
- increased likelihood of abnormal LFTs ([3]; APOA2 rs5085, recessive): 6 fold
- association of variant with CBD-associated sedation ([3]; COMT rs4680 recessive wild-type G alleles): decreased sedation
- increased likelihood of diarrhoea ([3]; CYP2A6 rs28399433): 10 fold
- association of variant with CBD-associated sedation ([3]; CYP2C19 rs3758581): decreased sedation
- increased likelihood of diarrhoea ([3]; CYP39A1 rs7761731): ~9 fold
- increased likelihood of diarrhoea ([3]; FMO6 rs2272797): ~5 fold
- increased odds of abnormal LFTs ([3]; SLC22A2 rs316003, recessive): ~11 fold
- increased odds of abnormal LFTs ([3]; SLC22A5 rs274548, recessive): ~15 fold
- increased odds of abnormal LFTs ([3]; SLC22A11 rs1783811, recessive): ~6 fold
- association of variant with CBD-associated sedation ([3]; TPMT rs2842934): decreased sedation
- association of variant with CBD-associated sedation ([3]; UGT2A1 rs4148304 missense variant): decreased odds of sedation
- association of variant with CBD-associated diarrhoea ([3]; UGT2A1 rs11249454 intron variant): decreased odds of diarrhoea
- OR of CBD response, multivariable model ([4]; ABP1 (AOC1) rs12539): 5.67
- OR of CBD response, multivariable model ([4]; CHST11 rs903247): 5.03
- OR of CBD response, multivariable model ([4]; DPYD rs1801265): 4.50
- OR of CBD response, multivariable model ([4]; FMO2 rs7515157 (recessive)): 0.06
- OR of CBD response, multivariable model ([4]; GSTM5 rs2479390): 0.15
- OR of CBD response, multivariable model ([4]; GSTP1 rs1695 (recessive)): 0.03
- OR of CBD response, multivariable model ([4]; SLC7A7 rs1061040): 5.04
- OR of CBD response, multivariable model ([4]; UGT2B4 rs1966151): 5.02
- OR of CBD response, multivariable model ([4]; predictor: CBD dose (mg/kg/day)): 1.07
- Therapeutic response (≥50% reduction), share of patients ([5]; 112 genotyped TRE patients): 56.3%
- Maintenance seizure frequency, Median ([5]; Non-Responders (N = 49)): 14.73
- Percent change seizure frequency, Median ([5]; Non-Responders (N = 49)): −14.3%
- Maintenance seizure frequency, Mean ± SD ([5]; Non-Responders (N = 49)): 108.52 ± 327.05
- Percent change seizure frequency, Mean ± SD ([5]; Non-Responders (N = 49)): 5.65 ± 59.13%
- Maintenance seizure frequency, Median ([5]; Overall (N = 112)): 7.76
- Percent change seizure frequency, Median ([5]; Overall (N = 112)): −53.9%
- Maintenance seizure frequency, Mean ± SD ([5]; Overall (N = 112)): 58.54 ± 222.27
- Percent change seizure frequency, Mean ± SD ([5]; Overall (N = 112)): −42.08 ± 58.76%
- Maintenance seizure frequency, Median ([5]; Responders (N = 63)): 4.50
- Percent change seizure frequency, Median ([5]; Responders (N = 63)): −82%
- Maintenance seizure frequency, Mean ± SD ([5]; Responders (N = 63)): 19.65 ± 46.09
- Percent change seizure frequency, Mean ± SD ([5]; Responders (N = 63)): −79.20 ± 16.58%
- Therapeutic response (≥50% reduction), number of patients ([5]; of 112 patients): 63
